Molecules are shown by their SMILES. Activity calls are given as the source filed them. The rule behind the calls is not given here.

Sequence of Sphingosine 1-phosphate receptor 3 (Homo sapiens) (Q99500 whole entry, looked up): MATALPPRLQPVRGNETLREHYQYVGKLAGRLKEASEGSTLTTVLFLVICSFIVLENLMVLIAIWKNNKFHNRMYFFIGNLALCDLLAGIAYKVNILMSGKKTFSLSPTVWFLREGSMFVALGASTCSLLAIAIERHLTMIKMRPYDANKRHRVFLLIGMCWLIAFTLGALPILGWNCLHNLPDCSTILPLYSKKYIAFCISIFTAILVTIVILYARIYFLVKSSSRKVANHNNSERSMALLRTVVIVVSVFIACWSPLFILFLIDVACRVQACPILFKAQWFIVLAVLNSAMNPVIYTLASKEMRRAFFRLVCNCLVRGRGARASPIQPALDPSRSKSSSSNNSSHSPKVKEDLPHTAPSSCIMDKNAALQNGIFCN

The assay addresses Sphingosine 1-phosphate receptor 3 (Homo sapiens) (UniProt Q99500). The experiment in a line: blockers of human S1PR3 signaling – cell-based, fluorescence, dose response, late-stage follow-up (AID 743434). To be noted: S1P3-expressing cells, fluorescence antagonist assay.
`O=C(NC(c1ccc(Cl)cc1)c1nc(-c2cccc(Cl)c2)no1)c1cccc(Cl)c1` (stereo not drawn): the IC50 is 1100 nM. The same measure for `O=C(NC(c1nc(-c2ccccc2)no1)C1CCOCC1)c1ccc(Cl)c(Cl)c1` (stereo not drawn): 2800 nM; for `O=C(NC(c1ccc(Cl)c(Cl)c1)c1nc(-c2ccccc2)no1)c1cccc(Cl)c1` (stereo not drawn): 53 nM; for `COc1ccc(C(=O)NC(c2ccccc2)c2nc(-c3ccccc3)no2)cc1` (stereo not drawn): “inactive”. Consider `N#Cc1ccc(C(=O)NC(c2ccc(Cl)c(Cl)c2)c2nc(-c3ccccc3)no2)cc1` (stereo not drawn), for which the IC50 was 320 nM. The same measure for `O=C(c1cccc(Cl)c1)N(CCO)C(c1ccc(Cl)c(Cl)c1)c1nc(-c2ccccc2)no1` (stereo not drawn): “inactive”. Turning to `O=C(NC(c1ccc(Cl)cc1)c1nc(-c2ccccc2)no1)c1ccc(Cl)c(Br)c1` (stereo not drawn), the IC50 is 390 nM. Take `O=C(NC(c1ccc(Cl)cc1)c1nc(-c2ccccc2)no1)c1cccc(Cl)c1` (stereo not drawn): the IC50 was 214 nM. The same measure for `O=C(NC(c1ccc(Cl)c(Cl)c1)c1nc(-c2ccccc2)no1)c1ccc(Cl)c(Cl)c1` (stereo not drawn): 66 nM.

Turning to `Cc1ccc(C(=O)NC(c2ccccc2)c2nc(-c3ccccc3)no2)cc1` (stereo not drawn), the IC50 result was “inactive”. The same measure for `O=C(NC(c1ccccc1)c1nc(-c2ccccc2)no1)c1ccc(Cl)cc1` (stereo not drawn): 2400 nM; for `O=C(NC(c1nc(-c2ccccc2)no1)C1CCCCC1)c1ccc(Cl)c(Cl)c1` (stereo not drawn): 3300 nM. Take `O=C(NC(c1cccc(Cl)c1)c1nc(-c2ccccc2)no1)c1cc(Cl)cc(Cl)c1` (stereo not drawn): the IC50 was 33 nM. In the case of `O=C(NC(c1ccc(Cl)c(Cl)c1)c1nc(-c2ccccc2)no1)c1ccc(Cl)cc1` (stereo not drawn), the IC50 was 76 nM. The same measure for `O=C(NC(c1ccc(Cl)cc1)c1nc(-c2ccccn2)no1)c1cccc(Cl)c1` (stereo not drawn): 2900 nM; for `O=C(NC(c1ccc(Br)cc1)c1nc(-c2ccccc2)no1)c1ccc(Cl)c(Cl)c1` (stereo not drawn): 214 nM.

In the case of `O=C(NC(Cc1ccccc1)c1nc(-c2ccccc2)no1)c1cccc(Cl)c1` (stereo not drawn), the concentration for half-maximal inhibition (IC50) was 5700 nM. The same measure for `O=C(NC(c1ccccc1)c1nc(-c2ccccc2)no1)c1cccc(Cl)n1` (stereo not drawn): 2800 nM.

As usually defined, the IC50 is the midpoint of a concentration-inhibition curve.

The values are drawn from PubChem BioAssay AID743434 (The Scripps Research Institute Molecular Screening Center, 2014).
